# Measured values reported in article PMC5522267, “Targeting PEPT1: a novel strategy to improve the antitumor efficacy of doxorubicin in human hepatocellular carcinoma therapy” (Oncotarget, 2017).
# Where a name gives a salt, the structure may show the parent alone. Read-outs that look alike come from different tables or passages of the source. Marks after values point to notes of the source that are not given here.
# How the values were obtained:
# [1] = test system: HepG2; assay: Drug concentration in tumor cells by HPLC, HepG2; format: cell-based, human; settings: incubated 2 hours
# Procedure: (§1) When the density of HCC cells reached to 3 × 10^6/ml, they were trypsinized and centrifuge (4°C, 800rpm, 5min), then discarded the supernatant, dropping medium 3 ml and evenly mixed. Cell suspension was divided into three groups (control group, Doxorubicin-tripeptide conjugate group and Doxorubicin group). The drug concentration was 0.01 mg/ml for cultured 2 hours avoiding light. Then the cells obtained by centrifugation were proceeded by the following steps: washed 3 times with 1 ml normal saline, added 0.5 ml ultra pure water (Millipore), broken by ultrasonic wave, drooped in acetonitrile (Tianjin Concord Technology Co. Ltd, China) 0.5 ml, mixed, ultrasonic oscillation for 10 mins, centrifuge (1200 rpm, 15 min), take the supernatant, filtration with filter membrane, take 20 μl for HPLC analysis (Agilent 1100 HPLC system, USA).
# (§2) Chromatographic conditions were as follows: chromatographic column: DIONEX Acclaim 120 C18 (2.1 × 250 mm, 5 μm 120A), Mobile phase: Acetonitrile-0.2%NaH2PO4 aqueous solution (35: 65), Velocity: 0.35 ml/min, column temperature: 30°C, DAD, 254 nm, sample size: 20 μl. […] According to the chromatographic condition, the retention time (tR), peak position time, chromatographic behavior, resolution (R), the minimum detectable concentration and the intracellular drug concentration of these two drugs were detected in turn.
# [2] = test system: Caco2; assay: Drug concentration in tumor cells by HPLC, Caco2; format: cell-based, human; settings: incubated 2 hours
# [3] = Cardiac indexes, Bel-7402 HCC mice; format: in vivo, nude mice; settings: high dose, after treatment
# [4] = test system: Bel-7402; assay: Drug concentration in tumor cells by HPLC, Bel-7402; format: cell-based, human; settings: incubated 2 hours
# Procedure: as §1, §2
# [5] = test system: Caco2; assay: cells; format: cell-based, human; settings: Homo sapiens, Caco-2
# Procedure: (§3) Cells in the growth log phase were seeded in 96-well plate (200 ul/well) with density 8×10^3/well for 24 hours, then the drugs were added. The concentration of Doxorubicin-tripeptide conjugate was 0.005 mg/ml, 0.01 mg/ml, 0.02 mg/ml, 0.04 mg/ml, 0.06 mg/ml in turn, while Doxorubicin followed by 0.005 mg/ml, 0.01 mg/ml, 0.02 mg/ml, 0.04 mg/ml, 0.06 mg/ml with a same dosing volume 100 μl. Each concentration group included five equal wells and was provided with a control well of medium alone as a negative control. Add 20 μl of MTT Reagent ( 5 mg/ml, Sigma) to each well, including controls and continue to be incubated at 37°C for 4 hours. Remove the supernatant, drop plus DMSO (200 μl/well) and measure the OD value in each well, including the blanks, at 490 nm by a Multi-Mode Reader (BioTek, Synergy 2, USA). To calculate the inhibitory rate and the half maximal inhibitory concentration (IC50) according to the formula: Inhibitory rate =(1-( the dosing group OD/the control group OD )) × 100%, IC50 = lg^-1 (Xm-i (ΣP-0.5)) (Xm: the logarithm of maximum concentration, I: the logarithm of maximum dose/ adjacent dose, P: the sum of each group inhibitory rate, Pm: the maximum inhibitory rate, Pn: the minimum inhibitory rate ).
# [6] = test system: HepG2; assay: cells; format: cell-based, human; settings: Homo sapiens, HepG2, given as fraction, read-out: Inhibitory effect by MTT
# Procedure: as §3
# [7] = test system: Bel-7402; assay: cells; format: cell-based, human; settings: Homo sapiens
# Procedure: as §3
# [8] = Blood routine, HepG2 HCC mice; format: in vivo, nude mice; settings: low dose, after treatment
# [9] = Blood routine, Bel-7402 HCC mice; format: in vivo, nude mice; settings: high dose, after treatment
# [10] = test system: Bel-7402 HCC; settings: for Inhibition rate: from tumor weight vs control
# Source text: (§4) An animal model of HCC cells (Bel-7402, HepG2) transplanted into nude mice was established according to the method described in ref. 10.
# [11] = test system: HepG2 HCC
# Source text: as §4
# [12] = Cardiac indexes, HepG2 HCC mice; format: in vivo, nude mice; settings: low dose, after treatment
smiles,measurement,setting,value
"COc1cccc2c1C(=O)c1c(O)c3c(c(O)c1C2=O)C[C@@](O)(C(=O)CO)C[C@@H]3O[C@H]1C[C@H](N)[C@H](O)[C@H](C)O1 [Doxorubicin, Doxorubicin hydrochloride]",drug concentration in tumor cells,[1],2320 ± 30 ng/mL
same,drug concentration in tumor cells,[2],2730 ± 40 ng/mL
same,AST,[3],1400.83 ± 506.35^a U/L
same,CK,[3],1357.83 ± 504.33^ac U/L
same,CK-Mb,[3],823.17 ± 342.53 U/L
same,GSH-PX,[3],462.36 ± 100.90^a U
same,LDH,[3],5811.67 ± 3290.44 U/L
same,MDA,[3],3.43 ± 0.35^a nmol/mg
same,SOD,[3],151.60 ± 18.08^a U/mg
same,drug concentration in tumor cells,[4],2420 ± 30 ng/mL
same,IC50,"[5]; Caco2, MTT, read-out: IC50",15.4 µg/mL
same,inhibition at 5 µg/mL,"[5]; Caco2, drug 0.005 mg/ml, given as fraction, read-out: Inhibitory effect by MTT",34.6%
same,inhibition at 10 µg/mL,"[5]; Caco2, drug 0.01 mg/ml, given as fraction, read-out: Inhibitory effect by MTT",50%
same,inhibition at 20 µg/mL,"[5]; Caco2, drug 0.02 mg/ml, given as fraction, read-out: Inhibitory effect by MTT",57.9%
same,inhibition at 40 µg/mL,"[5]; Caco2, drug 0.04 mg/ml, given as fraction, read-out: Inhibitory effect by MTT",62.3%
same,inhibition at 80 µg/mL,"[5]; Caco2, drug 0.08 mg/ml, given as fraction, read-out: Inhibitory effect by MTT",78.9%
same,inhibition at 5 µg/mL,[6]; drug 0.005 mg/ml,34.6%
same,inhibition at 10 µg/mL,[6]; drug 0.01 mg/ml,42.2%
same,inhibition at 20 µg/mL,[6]; drug 0.02 mg/ml,57.3%
same,inhibition at 40 µg/mL,[6]; drug 0.04 mg/ml,66.6%
same,inhibition at 80 µg/mL,[6]; drug 0.08 mg/ml,87.9%
same,IC50,"[7]; Bel-7402, MTT, read-out: IC50",13.8 µg/mL
same,inhibition at 5 µg/mL,"[7]; Bel-7402, drug 0.005 mg/ml, given as fraction, read-out: Inhibitory effect by MTT",38.8%
same,inhibition at 10 µg/mL,"[7]; Bel-7402, drug 0.01 mg/ml, given as fraction, read-out: Inhibitory effect by MTT",49.1%
same,inhibition at 20 µg/mL,"[7]; Bel-7402, drug 0.02 mg/ml, given as fraction, read-out: Inhibitory effect by MTT",61.2%
same,inhibition at 40 µg/mL,"[7]; Bel-7402, drug 0.04 mg/ml, given as fraction, read-out: Inhibitory effect by MTT",70%
same,inhibition at 80 µg/mL,"[7]; Bel-7402, drug 0.08 mg/ml, given as fraction, read-out: Inhibitory effect by MTT",79.8%
same,PLT,[8],72.53 ± 25.46 ^a ×10^9/l
same,RBC,[8],7.55 ± 1.33 ×10^12/l
same,WBC,[8],4.90 ± 3.60 ×10^9/l
same,PLT,[9],81.33 ± 27.50^a ×10^9/l
same,RBC,[9],6.90 ± 2.32 ×10^12/l
same,WBC,[9],3.66 ± 2.58^a ×10^9/l
same,median survival time,"[10]; Bel-7402, high dose group",25.5 days
same,deaths during treatment,"[10]; Bel-7402, high dose group, 5W","1 death and 2 deaths and 1 death in the treatment of 2W+, 3W+ and 4W+ respectively"
same,"Tumor volume, Before treatment","[10]; Bel-7402 HCC mice, baseline",0.38 ± 0.28 cm^2
same,"Tumor volume (third column, no sub-head; actual volume at end of experiment)","[10]; Bel-7402 HCC mice, high dose",0.27 ± 0.16 cm^2
same,"Tumor volume, After treatment","[10]; Bel-7402 HCC mice, high dose: Doxorubicin 60 mg/m^2, conjugate 300 mg/m^2",0.42 ± 0.33 cm^2
same,Tumor weight,"[10]; Bel-7402 HCC mice, high dose, end of treatment",1.30 ± 0.41 g
same,Inhibition rate,"[10]; Bel-7402 HCC mice, high dose",32.35%
same,Inhibition rate,"[10]; Bel-7402 HCC mice, high dose, listed as C",32.35^c %
same,"Mice weight, Before treatment","[10]; mouse, in vivo",23.15 ± 1.60 g
same,median survival time,"[11]; HepG2, low dose group",26.5 days
same,deaths during treatment,"[11]; HepG2, low dose group, 5W",3 deaths and 1 death respectively in the treatment of 3W+ and 4W+
same,"Tumor volume, Before treatment","[11]; HepG2 HCC mice, baseline",0.32 ± 0.30 cm^2
same,"Tumor volume (third column, no sub-head; actual volume at end of experiment)","[11]; HepG2 HCC mice, low dose",0.50 ± 0.46 cm^2
same,"Tumor volume, After treatment","[11]; HepG2 HCC mice, low dose: Doxorubicin 40 mg/m^2, conjugate 200 mg/m^2",0.64 ± 0.61 cm^2
same,Tumor weight,"[11]; HepG2 HCC mice, low dose, end of treatment",1.66 ± 0.98 g
same,"Mice weight, Before treatment","[11]; mouse, in vivo",21.23 ± 4.97 g
same,AST,[12],989.25 ± 145.74 U/L
same,CK,[12],1160.50 ± 164.82 U/L
same,CK-Mb,[12],797.00 ± 155.90^a U/L
same,GSH-PX,[12],515.57 ± 146.57^a U
same,LDH,[12],6958.50 ± 991.50 U/L
same,MDA,[12],3.97 ± 0.50 nmol/mg
same,SOD,[12],135.63 ± 16.22^a U/mg
